EC50 and IC50 data for 25 compounds are collected here from US10501479B2, “Benzenesulfonyl-asymmetric ureas and medical uses thereof” (HELSINN HEALTHCARE SA, priority 2016, dated 2019).

Where two headings read alike, the source gives them in different places. A value given as a limit tells only on which side of the number the result lay.

What all share (assay type): cell-based
Assay [1] has as its target T1, recombinant human ghrelin receptor (HEK293/GRLN) (Homo sapiens, UniProt Q92847).
T1 construct: expressed in transfected cells
Nature of the assay: Ghrelin inverse agonist potency (EC50) with IP-1 (IP-One HTRF) assay. Conditions: IP-1 assay. In short, it runs like this: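 IP-1 accumulation was measured by HTRF (IP1-d2/Tb-cryptate, 620/665 nm read after 1 hour at room temperature) following 1 hour of compound treatment at 37° C. Cells were HEK293 stably expressing human ghrelin receptor, plated a day earlier on Matrigel. Inverse agonist potency was reported as EC50.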
For orientation: Time-resolved FRET reads energy transfer from a long-lived donor to a nearby acceptor.

Assay [2] addresses T2, GHSR-1a (HEK293/GHSR1a cell line) (Homo sapiens, UniProt Q92847).
T2 construct: expressed in transfected cells; host or cells: HEK293/GHSR1a cell line
Nature of the assay: Ghrelin agonist potency (EC50) with calcium FLIPR assay. In short, it runs like this:
(§1)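 The cells were plated a day ahead and loaded with a calcium-sensitive dye. Test compound was then added and incubated 15 min, followed by ghrelin. Antagonist potency was calculated from inhibition of the response to 10 nM ghrelin, and agonist potency from the calcium rise caused by compound alone.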

The target of assay [3] is T2, GHSR-1a (HEK293/GHSR1a cell line). Nature of the assay: Ghrelin antagonist potency (IC50) with calcium FLIPR assay, ghrelin 10 nM. In short, it runs like this: as §1
Where [4] appears, read: HEK293/GRLN, read-out: Activity EC50 (ghrelin inverse agonist potency).
The mark [5] stands for this setting: HEK293/GHSR1a, read-out: Activity EC50/EMax: EC50 (ghrelin agonist potency).
[6] abbreviates: HEK293/GHSR1a, ghrelin 10 nM, read-out: Activity IC50 (ghrelin antagonist potency).
[7] abbreviates: ghrelin inverse agonist potency, read-out: Activity EC50.
Setting [8] is: ghrelin agonist potency, read-out: Activity EC50/EMax.
The mark [9] stands for this setting: ghrelin antagonist potency, read-out: Activity IC50.

The term IC50 denotes the point on the concentration scale where inhibition reaches its midpoint.

T1 sequence (Q92847 whole entry): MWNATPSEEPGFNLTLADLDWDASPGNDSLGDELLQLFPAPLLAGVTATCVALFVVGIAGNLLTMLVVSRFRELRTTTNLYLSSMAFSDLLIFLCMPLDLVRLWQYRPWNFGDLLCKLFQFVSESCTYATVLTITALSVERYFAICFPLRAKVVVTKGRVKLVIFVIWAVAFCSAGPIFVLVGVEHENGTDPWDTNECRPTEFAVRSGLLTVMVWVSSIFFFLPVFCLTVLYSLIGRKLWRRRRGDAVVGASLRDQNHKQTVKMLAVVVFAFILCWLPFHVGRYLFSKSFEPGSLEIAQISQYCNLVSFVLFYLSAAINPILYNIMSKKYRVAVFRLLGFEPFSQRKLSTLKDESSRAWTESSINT
T2 sequence (Q92847 whole entry): as above

With `CC(NC(=O)Nc1ccc(S(=O)(=O)Cc2ccc3c(c2)CN(C)C3)cc1)c1ccccn1` (stereo not drawn) [H1307, 1-(4-(((2-methylisoindolin-yl)methyl)sulfonyl)phenyl)-3-(1-(pyridin-2-yl)ethyl)urea], the EC50 is 935 nM in assay [1] (setting [4]) and above 30000 nM in assay [2] (setting [5]). For the same compound, the IC50 in assay [3] (setting [6]) came to 2300 nM.
For `CC(NC(=O)Nc1ccc2c(c1)S(=O)(=O)C(c1ccc3c(c1)CNC3)C2=O)c1ccccc1` (stereo not drawn) [H1522, 1-(2-(isoindolin-5-yl)-1,1-dioxido-3-oxo-2,3-dihydrobenzo[b]thiophen-6-yl)-3-(1-phenylethyl)urea], the EC50 in assay [1] (setting [7]) is 1890 nM; in assay [2] (setting [8]) it was above 30000 nM. Moreover, the IC50 in assay [3] (setting [9]) turned out to be 3850 nM.
For the compound `CN1Cc2ccc(CS(=O)(=O)c3ccc(NC(=O)N[C@H]4CCCc5ccccc54)cc3)cc2C1` [H1335, (S)-1-(4-(((2-methylisoindolin-5-yl)methyl)sulfonyl)phenyl)-3-(1,2,3,4-tetrahydronaphthalen-1-yl)urea], the EC50 is 69.9 nM in assay [1] (setting [4]) and above 30000 nM in assay [2] (setting [5]). The half-inhibitory concentration (IC50) in assay [3] (setting [6]) came out at 133 nM.
As to `COc1cc(S(=O)(=O)Cc2ccc3c(c2)CCN(C)C3)ccc1NC(=O)N(O)C(C)c1ccccc1` (stereo not drawn) [H1525, 1-hydroxy-3-(2-methoxy-4-(((2-methyl-1,2,3,4-tetrahydroisoquinolin-6-yl)methyl)sulfonyl)phenyl)-1-(1-phenylethyl)urea], the EC50 in assay [1] (setting [7]) was 25.5 nM; in assay [2] (setting [8]), above 30000 nM. For the same compound, the IC50 in assay [3] (setting [9]) was found to be 37.4 nM.
Regarding `CC(NC(=O)Nc1ccc(S(=O)(=O)CC2CCC(NCC3CC3)CC2)cc1)c1cccc(Cl)c1Cl` (stereo not drawn) [H1371, 1-(4-(((4-((cyclopropylmethyl)amino)cyclohexyl)methyl)sulfonyl)phenyl)-3-(1-(2,3-dichlorophenyl)ethyl)urea], the figures for the EC50 in assay [1] (setting [4]) and in assay [2] (setting [5]) were 231 nM and above 30000 nM, respectively. The IC50 in assay [3] (setting [6]) is 2440 nM.
The matching figures for `CC(NC(=O)Nc1ccc(S(=O)(=O)Cc2ccc3c(c2)CNC3)cc1F)c1c(F)cccc1F` (stereo not drawn) [H1411, 1-(1-(2,6-difluorophenyl)ethyl)-3-(2-fluoro-4-((isoindolin-5-ylmethyl)sulfonyl)phenyl)urea]: 17.8 nM, above 30000 nM and 124 nM.
The matching figures for `CC(NC(=O)Nc1ccc(S(=O)(=O)Cc2cccc(CN)c2)cc1)c1ccccc1` (stereo not drawn) [H1290, 1-(4-((3-(aminomethyl)benzyl)sulfonyl)phenyl)-3-(1-phenylethyl)urea]: 722 nM, above 30000 nM and 3410 nM.
The matching figures for `COc1cc(S(=O)(=O)Cc2ccc3c(c2)CC(C)N(C)C3)ccc1NC(=O)NC(C)c1ccccc1` (stereo not drawn) [H1440, 1-(4-(((2,3-dimethyl-1,2,3,4-tetrahydroisoquinolin-6-yl)methyl)sulfonyl)-2-methoxyphenyl)-3-(1-phenylethyl)urea]: 2.9 nM, above 30000 nM and 4.4 nM.
Turning to `CN1Cc2ccc(CS(=O)(=O)c3ccc(NC(=O)NC4COc5ccccc54)cc3)cc2C1` (stereo not drawn) [H1331, 1-(2,3-dihydrobenzofuran-3-yl)-3-(4-(((2-methylisoindolin-5-yl)methyl)sulfonyl)phenyl)urea], the figures for the EC50 in assay [1] (setting [4]) and in assay [2] (setting [5]) were 130 nM and above 30000 nM, respectively. Further, the half-inhibitory concentration (IC50) in assay [3] (setting [6]) is 213 nM.
The matching figures for `C[C@@H](NC(=O)Nc1ccc(S(=O)(=O)Cc2cc3c(s2)CN(C)C3)cc1)c1ccccc1` [H1348, (R)-1-(4-(((5-methyl-5,6-dihydro-4H-thieno[2,3-c]pyrrol-2-yl)methyl)sulfonyl)phenyl)-3-(1-phenylethyl)urea]: 19.9 nM, above 30000 nM and 65 nM.
For the compound `COc1cc(S(=O)(=O)Cc2ccc3c(c2)CN(C)C3)ccc1NC(=O)NC(C)c1c(F)cccc1F` (stereo not drawn) [H1437, 1-(1-(2,6-difluorophenyl)ethyl)-3-(2-methoxy-4-(((2-methylisoindolin-5-yl)methyl)sulfonyl)phenyl)urea], the EC50 in assay [1] (setting [4]) is 10 nM; in assay [2] (setting [5]), above 30000 nM. Moreover, the IC50 in assay [3] (setting [6]) worked out at 24.3 nM.
The matching figures for `CC(NC(=O)Nc1ccc(S(=O)(=O)Cc2ccc3c(c2)CN(CC2CCCO2)C3)cc1)c1ccccc1` (stereo not drawn) [H1341, 1-(1-phenylethyl)-3-(4-(((2-((tetrahydrofuran-2-yl)methyl)isoindolin-5-yl)methyl)sulfonyl)phenyl)urea]: 20.9 nM, above 30000 nM and 69.7 nM.
Take `CC(=O)N1C2CC=C(CS(=O)(=O)c3ccc(NC(=O)NC(C)c4cccc(Cl)c4Cl)cc3)C1CC2` (stereo not drawn) [H1513, 1-(4-(((8-acetyl-8-azabicyclo[3.2.1]oct-2-en-2-yl)methyl)sulfonyl)phenyl)-3-(1-(2,3-dichlorophenyl)ethyl)urea]: the EC50 is 707 nM in assay [1] (setting [7]) and above 30000 nM in assay [2] (setting [8]). In assay [3] (setting [9]), the IC50 was found to be 14600 nM.
Take `CC(NC(=O)Nc1ccc(S(=O)(=O)Cc2ccc3c(c2)CNC3)cc1CO)c1ccccc1` (stereo not drawn) [H1467, 1-(2-(hydroxymethyl)-4-((isoindolin-5-ylmethyl)sulfonyl)phenyl)-3-(1-phenylethyl)urea]: the EC50 in assay [1] (setting [7]) is 19.7 nM; in assay [2] (setting [8]), above 30000 nM. Also, the IC50 in assay [3] (setting [9]) worked out at 121 nM.
Taken in the same sequence, the figures for `NC(=O)C(NC(=O)Nc1ccc(S(=O)(=O)Cc2ccc3c(c2)CNC3)cc1)c1ccccc1` (stereo not drawn) [H1457, 2-(3-(4-((isoindolin-5-ylmethyl)sulfonyl)phenyl)ureido)-2-phenylacetamide] were 123 nM, above 30000 nM and 16600 nM.
The matching figures for `COc1ccc(C(C)NC(=O)Nc2ccc(S(=O)(=O)Cc3ccc4c(c3)CNC4)cc2)cc1Cl` (stereo not drawn) [H1475, 1-(1-(3-chloro-4-methoxyphenyl)ethyl)-3-(4-((isoindolin-5-ylmethyl)sulfonyl)phenyl)urea]: 18.9 nM, above 30000 nM and 32.2 nM.
`C[C@@H](NC(=O)Nc1ccc(S(=O)(=O)Cc2ccc3c(c2)CN(C)C3(C)C)cc1)c1ccccc1` [H1357, (R)-1-(1-phenylethyl)-3-(4-(((1,1,2-trimethylisoindolin-5-yl)methyl)sulfonyl)phenyl)urea]: the EC50 in assay [1] (setting [4]) was 36 nM; in assay [2] (setting [5]) it was above 30000 nM. Also, the IC50 in assay [3] (setting [6]) came to 57 nM.
Taken in the same sequence, the figures for `CC(NC(=O)Nc1ccc(S(=O)(=O)Cc2ccc3c(c2)C(=O)NC3)cc1)c1ccccc1` (stereo not drawn) [H1291, 1-(4-(((3-oxoisoindolin-5-yl)methyl)sulfonyl)phenyl)-3-(1-phenylethyl)urea] were 468 nM, above 30000 nM and 1200 nM.
As for `COc1c(CS(=O)(=O)c2ccc(NC(=O)NC(C)c3cccc(Cl)c3Cl)cc2)ccc2c1CCN(C)C2` (stereo not drawn) [H1369, 1-(1-(2,3-dichlorophenyl)ethyl)-3-(4-(((5-methoxy-2-methyl-1,2,3,4-tetrahydroisoquinolin-6-yl)methyl)sulfonyl)phenyl)urea], the EC50 in assay [1] (setting [4]) was 1.1 nM; in assay [2] (setting [5]) it was above 30000 nM. Further, the IC50 in assay [3] (setting [6]) was 3.66 nM.
Taken in the same sequence, the figures for `CC(NC(=O)Nc1ccc(S(=O)(=O)Cc2ccc(CN3CCOCC3)cc2)cc1)c1ccccc1` (stereo not drawn) [H1275, 1-(4-((4-(morpholinomethyl)benzyl)sulfonyl)phenyl)-3-(1-phenylethyl)urea] were 310 nM, above 30000 nM and 1020 nM.
For `CC(NC(=O)Nc1ccc(S(=O)(=O)Cc2ccc3c(c2)CNC3)cc1-c1cn[nH]c1)c1ccccc1` (stereo not drawn) [H1532, 1-(4-((isoindolin-5-ylmethyl)sulfonyl)-2-(1H-pyrazol-4-yl)phenyl)-3-(1-phenylethyl)urea], the EC50 in assay [1] (setting [7]) is 69.5 nM; in assay [2] (setting [8]), above 30000 nM. The IC50 in assay [3] (setting [9]) turned out to be 1660 nM.
In the case of `CC(NC(=O)Nc1ccc(S(=O)(=O)Cc2ccc3c(c2)CNC3)cn1)c1ccccc1` (stereo not drawn) [H1408, 1-(5-((isoindolin-5-ylmethyl)sulfonyl)pyridin-2-yl)-3-(1-phenylethyl)urea], the EC50 in assay [1] (setting [4]) is 36 nM; in assay [2] (setting [5]), above 30000 nM. Further, the IC50 in assay [3] (setting [6]) was 162 nM.
For the compound `COc1cc(S(=O)(=O)Cc2cc3c(cc2F)CNCC3)ccc1NC(=O)NC(C)c1cccc(Cl)c1Cl` (stereo not drawn) [H1439, 1-(1-(2,3-dichlorophenyl)ethyl)-3-(4-(((7-fluoro-1,2,3,4-tetrahydroisoquinolin-6-yl)methyl)sulfonyl)-2-methoxyphenyl)urea], the EC50 is 14.1 nM in assay [1] (setting [4]) and above 30000 nM in assay [2] (setting [5]). For the same compound, the IC50 in assay [3] (setting [6]) was 12.4 nM.
For `CC(c1ccccc1)n1c(=O)[nH]c2ccc(S(=O)(=O)Cc3ccc4c(c3)CNC4)cc2c1=O` (stereo not drawn) [H1469, 6-((isoindolin-5-ylmethyl)sulfonyl)-3-(1-phenylethyl)quinazoline-2,4(1H,3H)-dione], the EC50 in assay [1] (setting [7]) turned out to be 26 nM; in assay [2] (heading: Activity EC50/EMax, ghrelin agonist potency, read-out: Activity EC50/EMax) it was 110 nM. The IC50 in assay [3] (setting [9]) amounted to 110 nM.
`CC(NC(=O)Nc1ccc(S(=O)(=O)Cc2ccc3c(c2)C(O)CC3)cc1)c1ccccc1` (stereo not drawn) [H1293, 1-(4-(((3-hydroxy-2,3-dihydro-1H-inden-5-yl)methyl)sulfonyl)phenyl)-3-(1-phenylethyl)urea]: the EC50 was 930 nM in assay [1] (setting [4]) and above 30000 nM in assay [2] (setting [5]). Moreover, the IC50 in assay [3] (setting [6]) stood at 5680 nM.
